# Source: PubChem BioAssay AID2744 (NMMLSC, 2010)
# Active and inactive are the calls of the source.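 The calls were made as follows: active = fitted half-maximal concentration for changing reporter fluorescence at or below a set limit; inactive = the rest.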
# Biological target: Citrate synthase, peroxisomal (Saccharomyces cerevisiae (strain ATCC 204508 / S288c)) (UniProt P08679)
# Assay: yeast TOR pathway CIT2-GFP reporter potency – flow cytometry, MLPCN hits, dose response (AID 2744)
# Details: S. cerevisiae CIT2-GFP strain, 3 h, at 33 µM (top of the series)
# Citrate synthase, peroxisomal (Saccharomyces cerevisiae (strain ATCC 204508 / S288c)), sequence (P08679 whole entry, looked up): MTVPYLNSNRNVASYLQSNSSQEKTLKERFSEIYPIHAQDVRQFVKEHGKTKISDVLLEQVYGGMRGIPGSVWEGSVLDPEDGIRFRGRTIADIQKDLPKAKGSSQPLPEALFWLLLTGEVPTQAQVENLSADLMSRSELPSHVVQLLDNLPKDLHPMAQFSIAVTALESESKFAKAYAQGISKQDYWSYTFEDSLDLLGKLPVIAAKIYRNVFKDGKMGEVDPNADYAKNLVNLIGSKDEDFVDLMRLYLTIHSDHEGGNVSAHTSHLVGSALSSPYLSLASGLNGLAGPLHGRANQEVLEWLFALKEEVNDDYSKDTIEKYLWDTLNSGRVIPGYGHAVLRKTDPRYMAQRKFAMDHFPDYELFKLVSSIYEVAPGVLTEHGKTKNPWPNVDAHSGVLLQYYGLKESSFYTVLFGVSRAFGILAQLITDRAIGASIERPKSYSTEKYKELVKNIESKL
row,Structure (SMILES),"GFP fluorescence, higher = induction"
1,O=c1[nH]c(-c2ccc(Cl)cc2)cs1,inactive
2,COc1ccccc1N=Cc1nc(-c2ccccc2)oc1OC(C)=O,inactive
3,CC1(C)OC(c2ccccc2)=C/C(=C/C=C2C(=O)NC(=S)NC2=O)O1,inactive
4,Cc1cc(C(=O)Nc2nc(-c3ccccn3)cs2)ccc1[N+](=O)[O-],inactive
5,Nc1ccccc1SC(C[N+](=O)[O-])c1ccccc1 (configuration not stated),inactive
6,CCn1c(=O)c(C(=O)Nc2nc3ccccc3[nH]2)c(O)c2ccccc21,inactive
7,CCC(=O)Oc1oc(-c2ccccc2)nc1C=Nc1ccccc1OC,inactive
8,COc1ccc(C(=O)NC(=S)NNC(=O)c2cnccn2)cc1,inactive
9,CN1CCN(C(c2ccc(C(F)(F)F)cc2)c2ccc3cccnc3c2O)CC1 (configuration not stated),inactive
10,CCOc1ccc(N2C(=O)C(Cl)=C(Nc3ccccc3O)C2=O)cc1,inactive
11,COc1ccc(-c2cc3cc(C(=O)O)ccn3c2C(=O)c2ccccc2)cc1,inactive
12,CC(C)[C@]1(c2ccccc2)ON(c2ccccc2C(F)(F)F)C1=O,inactive
13,O=C1/C(=C\c2ccc(O)c(O)c2)SC(=S)N1Cc1ccccc1,inactive
14,Cc1ccc(-c2nc(C)sc2CC(=O)Nc2nnc(C)s2)cc1,inactive
15,CS(=O)(=O)c1nc(-c2cccs2)cc(C(F)(F)F)n1,inactive
16,O=C(Nc1nnc(-c2ccc(F)cc2)o1)c1cc(Cl)sc1Cl,inactive
17,O=c1oc2cc(Oc3c([N+](=O)[O-])cc(C(F)(F)F)cc3[N+](=O)[O-])ccc2c2c1CCCC2,inactive
18,Cc1ccc(S(=O)(=O)N2CCCC2C(=O)NCc2ccncc2)cc1 (configuration not stated),inactive
19,CCC(=O)Nc1ccc(NC(=O)c2cc3ccccc3o2)c(OC)c1,inactive
20,COc1ccc(Cl)cc1C(Nc1cccnc1)c1ccc2cccnc2c1O (configuration not stated),inactive
21,COc1cc(C=C2C(=O)c3ccccc3C2=O)cc(OC)c1OC,inactive

row,Structure (SMILES),"GFP fluorescence, higher = induction"
1,C=CCN1C(=O)/C(=C/c2cccs2)C(=O)NC1=S,inactive
2,O=C(NCc1ccc2c(c1)OCO2)c1nc(S(=O)(=O)Cc2ccccc2)ncc1Cl,inactive
3,Cc1nn(C)c(C)c1N1C(=O)c2cccc3c(Br)ccc(c23)C1=O,inactive
4,O=C(/C=C/c1ccccc1)c1cc(Br)ccc(=O)c1O,inactive
5,O=[N+]([O-])c1cc(S(=O)(=O)C(F)(F)F)ccc1Sc1nc2ccccc2s1,inactive
6,C#CCOCCOCCOCCNc1nc(N2CCN(C(=O)CCCCCCCCCCNC(=O)[C@H](CCCCN)n3cc(C)nn3)CC2)nc(N2CCN(C(=O)CCCCCCCCCCNC(=O)[C@H](CCCN=C(N)N)n3cc(C[C@@H](C)CC)nn3)CC2)n1,inactive
7,Cc1ccc(/C=C2\C(=O)NC(=S)N(c3ccccc3F)C2=O)s1,inactive
8,CCCCCCCCn1sccc1=O,inactive
9,O=C(O)c1cc[c]([Hg][Cl])cc1,inactive
10,O=C(Nc1cccc(C(F)(F)F)c1)Oc1ccc(Cl)c2cccnc12,inactive
11,Cc1[nH]n(-c2ccccc2)c(=O)c1C(c1ccccc1[N+](=O)[O-])C(C#N)C#N (configuration not stated),inactive
12,Oc1c(Br)cc(Br)cc1C=Nc1ccc2[nH]ncc2c1,inactive
13,Cc1cc(C)c(C)c(S(=O)(=O)ON2C(=O)c3ccccc3C2=O)c1C,inactive
14,O=C1CC(c2ccccc2)=NN1c1nc(-c2ccccc2)cs1,inactive
15,COc1cc(/C=C2/C(=O)ON=C2c2ccccc2)ccc1O,inactive
16,Oc1ccc(Br)cc1/C=N/Nc1ccccn1,inactive
17,CCN1/C(=C/C=C/c2sc3ccccc3[n+]2CC)Sc2ccccc21,inactive
18,Cc1ccccc1N1C(=O)C(Cl)=C(N2CCN(c3ccccc3)CC2)C1=O,inactive
19,CCOc1ccc(C(C)=O)cc1N1C(=O)C2C3C=CC(O3)C2C1=O (configuration not stated),inactive
20,Cc1cc(C(=O)COC(=O)c2ccc[nH]c2=O)c(C)n1-c1ccccc1F,inactive
21,CC(=O)Oc1ccc(/C=c2\sc3ncnn3c2=O)cc1,inactive

row,Structure (SMILES),"GFP fluorescence, higher = induction"
1,O=[N+]([O-])c1cc(CN2CCN(c3ccccc3)CC2)c(O)c2ncccc12,inactive
2,Cc1ccc(C(=O)/C=C/C(=O)c2ccc(C)cc2)cc1,inactive
3,CC(C)Cn1c(=O)c(C(=O)Nc2ccncc2)c(O)c2ccccc21,inactive
4,COc1ccc(OC)c(S(=O)(=O)ON2C(=O)c3ccccc3C2=O)c1,inactive
5,COc1cc(NC(=O)c2cccc(C)c2)ccc1NC(=O)c1cc2ccccc2o1,inactive
6,COc1ccccc1N=Nc1ccc(O)c2ncccc12,inactive
7,COCCN1C(=O)/C(=C/c2ccc(N3CCCC3)cc2C)SC1=S,inactive
8,CC1=C/C(=N\OS(=O)(=O)c2ccccc2)C(C)=CC1=O,inactive
9,Cc1c(Cc2ccccc2)c(NCCN(C)C)n2c(nc3ccccc32)c1C#N,inactive
10,O=[N+]([O-])c1ccc(Sc2nc3ccccc3o2)c([N+](=O)[O-])c1,inactive
11,O=C(Oc1oc(-c2ccco2)nc1C=Nc1ccc(Cl)cc1)c1ccco1,inactive
12,Cc1ccc(/C=C2\SC(=S)N(CC3CCCO3)C2=O)o1 (configuration not stated),inactive
13,C=C1C(O)[C@@H]2O[C@]3(CC[C@H](/C=C/C(C)[C@@H]4CC(C)=CC5(O[C@H](C[C@@](C)(O)C(=O)O)CCC5O)O4)O3)CC[C@H]2O[C@@H]1C(O)CC(C)[C@H]1OC2(CCCCO2)CCC1C (some centres not stated),inactive
14,CC1(c2ccccc2)ON(c2ccccc2C(F)(F)F)C1=O (configuration not stated),inactive
15,Cc1cc(=O)n2c3c(sc2n1)C(=O)N(Cc1ccccc1)C3=O,inactive
16,CN1CCN(C(=O)c2cc(COc3c(F)cccc3F)on2)CC1c1ccccc1 (configuration not stated),inactive
17,Cc1ccc(C(c2cc(Cl)c3cccnc3c2O)N2CCN(C)CC2)cc1 (configuration not stated),inactive
18,Cc1ccc(N=c2ssnc2Cl)cc1,inactive
19,CCc1ccc(C(=O)/C=C/c2ccc([N+](=O)[O-])o2)cc1,inactive
20,CC(C)(C)C(=O)NC(=S)NNC(=O)c1sc2ccccc2c1Cl,inactive

# Same assay, conditions: S. cerevisiae CIT2-GFP strain, flow cytometry fluorescence, 3 h
row,Structure (SMILES),EC50 [µM]
1,CNc1nc(N)c([N+](=O)[O-])c(Nc2cccc(F)c2)n1,4.36
2,N/C(=N\OC(=O)c1ccc(Cl)cc1Cl)c1ccccc1,4.16
3,Cc1ccc(/C=C/C(=O)c2ccccc(=O)c2O)c(C)c1,14.7
4,N/C(Cc1ccc(Cl)cc1Cl)=N\OC(=O)c1cccs1,1.48
5,N/C(Cc1ccc(Cl)cc1)=N\OC(=O)c1cccc2ccccc12,1.35
